Measured values taken from patent publication US8859615B2, “Compounds, compositions and methods for reducing toxicity and treating or preventing diseases” (priority 2008, dated 2014).
Several values for one entry are separate records, joined by “and”; a condition that tells them apart may be missing. Identical values can stand only once. Like-named read-outs stand apart in the source and are kept apart here.

Columns and labels:
[1] = Description: The experimental procedure for FIG. 14 was carried out similarly to that in FIG. 1. * means P<0.1 and ** means P<0.05. Body weight was calculated as described for FIGS. 1 and 4-7.
The experiments were performed as indicated for FIG. 14, with Compound (K) being administered orally. Compound K was administered on the days indicated by the arrows at the top of the graph, and paclitaxel was administered on the days indicated by the arrows on the bottom of the graph. Body weight was calculated as described for FIGS. 1, 4-7, 14 and 15. * means P<0.1 and ** means P<0.05.

[2] = tested on: CCRF-CEM subline resistant to TAXOL; test: In vitro cytotoxicity against TAXOL-resistant CCRF-CEM subline; type: cell-based, human; details: Table 3A-2
Description: (§1) The data in Tables 2X, 3A-E, 4, 5, and 6 were obtained using the cell counting kit-8 (CCK-8) tetrazolium assay in a 96-well microplate. Five to seven concentrations of each compound in triplicate were used, and the IC50 values were determined by CompuSyn software automation (Chou T C. and Martin N. ComboSyn, Inc., 2006) based on the median-effect equation and plot (Chou T C. J. Theor. Biol. 59:235-276, 1976; Chou T C. Pharmacol. Rev. 58: 621-681, 2006). […] The r value defines the correlation coefficient of the median-effect plot which signifies the conformity to the mass-action law principle (Chou T C. J. Theor. Biol. 59:235-276, 1976; Chou T C. Pharmacol. Rev. 58:621-681, 2006). These parameters were determined by CompuSyn simulation (available at http://www.combosyn.com).
(§2) Absorbance was measured by Powerwave XS microplate spectrophotometer.

[3] = for Total score: Table 11A, First Round, days 09-27; for 1st & 2nd Cycle Total Score / 2nd Cycle Total Score: Table 11C; for toxicity score (neurotoxicity): nude, mouse, in vivo
Description: The “toxicity score” (or “Total Score” in Tables 11A-C) is determined by adding the neurotoxicity ratings. The ratings used are: Normal (−, a toxicity score of 0); slightly unable to balance (+, a toxicity score of 1); hind-leg paralysis (++, a toxicity score of 2); and 4-leg paralysis and death (+++, none observed).

[4] = tested on: CCRF-CEM human T-cell acute lymphoblastic leukemia cells; test: In vitro cytotoxicity against CCRF-CEM (XTT / CCK-8 tetrazolium assay, 72 hr); details: Homo sapiens, CCRF-CEM, 72 h
Description: (§3) The cytotoxicity IC50 of each compound was measured with the XTT assay using the 2,3-bis(2-methoxy-4-nitro-5-sulfophenyl)-5-[(phenylamino)carbonyl]-2H-tetrazolium hydroxide (XTT) microculture method as described in Scudiero et al., Cancer Res., 48:4827 (1988), the contents of which are hereby incorporated by reference in their entirety. The CCK-8 assay is a cell counting kit-8 (CCK-8) tetrazolium assay using a 96-well microplate (Dojindo Molecular Technologies, Inc., Rockville, Md.) (M. Ishiyama et al., Biol. Pharm. Bull. 19: 1518, 1996). Absorbance was measured by Powerwave a XS microplate spectrophotometer. This method described is considered a general method in vitro cytotoxicity studies.
as §1
(§4) CCRF-CEM human T-cell acute lymphoblastic leukemia cells and the corresponding vinblastine-resistant cells (CCRF-CEM/VBL100) were cultured at an initial density of 5×10^4 cells per milliliter. The cultured cells were maintained in a 5% CO2-humidified atmosphere at 37° C. in RPMI medium 1640 (GIBCO/BRL) containing penicillin (100 units/mL), streptomycin (100 μg/mL, GIBCO/BRL), and 10% heat-inactivated fetal bovine serum. The cytotoxicity of each Compound of the invention was measured using the 2,3-bis(2-methoxy-4-nitro-5-sulfophenyl)-5-[(phenylamino)carbonyl]-2H-tetrazolium hydroxide (XTT) microculture method as described in Scudiero et al., Cancer Res., 48:4827 (1988), the contents of which are hereby incorporated by reference in their entirety.
as §2

[5] = tested on: CCRF-CEM/VBL100 vinblastine-resistant cells; test: In vitro cytotoxicity against vinblastine-resistant CCRF-CEM subline; type: cell-based, human; details: for IC50: Homo sapiens, CCRF-CEM, 72 h
Description: as §3, §1, §4, §2

[6] = tested on: quinone reductase (NQO1) in Hepa 1c1c7 murine hepatoma cells; test: Phase 2 enzyme inducer activity (Prochaska microtiter plate bioassay); details: Hepa 1c1c7 cells
Description: Pure panaxytriol was dissolved in dimethyl sulfoxide. Phase 2 enzyme inducer activity was measured using a rapid assay of activity of representative phase 2 enzyme in a cell line. This assay was originally developed by Prochaska and colleagues as in Prochaska H J, Santamaria A B, Talalay P. “Rapid detection of inducers of enzymes that protect against carcinogens.” Proc Natl Acad Sci US A 1992; 89:2394-2398, and has been further refined as in Fahey J W, Dinkova-Kostova A T, Stephenson K K, Talalay P. “The “Prochaska” microtiter plate bioassay for inducers of NQO1.” Methods Enzymol. 2004; 382:243-258, each of which are incorporated by reference in its entirety. Briefly, Hepa 1c1c7 murine hepatoma cells were grown in 96-well microtiter plates. Serial dilutions of the extracts or compounds which were assayed were added into the wells. After 48 hours, the cells were lysed and the activity of quinone reductase (NQO1) was assayed by the addition of a reaction mixture containing an NADPH-generating system, menadione and MTT. NQO1 catalyzes the reduction of menadione to menadiol by NADPH, and MTT is reduced nonenzymatically by menadiol, resulting in the formation of a blue color that can then be quantitated as in Prochaska H J, Santamaria A B. “Direct measurement of NAD(P)H:quinone reductase from cells cultured in microtiter wells: a screening assay for anticarcinogenic enzyme inducers.” Anal. Biochem. 1988; 169:328-336, which is incorporated by reference in its entirety. […] NQO1 activity and protein content of the lysate were measured in duplicate plates with an optical microtiter plate absorbance reader. […] One unit of inducer activity is defined as the amount that, when added to a single microtiter well, doubles the NQO1 specific activity. Sulforaphane and β-naphthoflavone were used as positive controls in each bioassay. […] NQO1 inducer activity was assayed as described herein, and is reported here as treated/control at different concentrations of ginseng extract or component per well. […] (+) Panaxytriol (molecular weight […]), (Δ) Protopanaxatriol (molecular weight 461), (◯) Korean red SUN GINSENG® extract. The reductase assay can also be performed as disclosed in PCT Publication No. WO 06/023821, the entire contents of which are hereby incorporated in the instant application.

[7] = tested on: human lymphoblastic leukemic T-cell growth; test: Cytotoxic activity relative to stability during storage at −20° C. in DMSO (Table 10); type: cell-based; details: Homo sapiens, CCRF-CEM, 72 h, XTT, 72 hr
Source text: Without wishing to be bound by theory, the oxidized versions may be active metabolites. This theory provides an explanation of the delayed onset of therapeutic effects seen in the figures herein. The oxidized compounds may be active agents that are formed slowly upon metabolic oxidation. […] The active metabolites may explain the biphasic pharmacological properties of panaxytriol or Compound D that have been observed (FIGS. 9B, C, D; FIGS. 11D, E, F, and FIGS. 12D, E). […] Induction of the phase 2 enzymes may slow oxidation of the compounds (Ng et al., Tetrahedron Letters. 49: 7178-7179 (2008)).

leukemic CCRF CEM cells = test: Precursor incorporation into DNA, RNA and protein (Table 9); type: cell-based, human
Description: The radioactive tracer studies were carried out as described by Chou T C, et al. Cancer Res. 43: 3074-3079, 1983.

[8] = tested on: human mammary carcinoma MX-1 cells; test: In vitro drug combination (median-effect / combination index, DRI) against MX-1 cell growth (Tables 5, 5A); type: cell-based; details: for IC50: MX-1, 72 hrs
Description: as §1
Efficacy of panaxytriol in combination with Fludelone (an illustrative tubulin-binding anticancer agent) was measured according to procedures described in more detail by Chou et al. (1984) Adv. Enz. Regul., 22:27-55, Chou et al. (1994) Nat'l Cancer Inst., 86:1517-1524, and Chou (2006) Pharmacological Reviews, […]:621-681. Software packages used for data analyses were CalcuSyn for Windows (Chou and Hayball., Multiple-drug dose effect analyzer and manual, Biosoft, Cambridge Place, Cambridge, U.K (1996)) and CompuSyn for Drug Combinations (Chou and Martin, Software for determination of synergism and antagonism and determination of IC50, ED50 and LD50, ComboSyn Inc., Paramus, N.J. (2005)). The entire contents of each of the above references are incorporated by reference in their entireties. […] DRI quantitates synergy as how many fold less of a dose is required to obtain a given level of effect for a combination of drugs versus the same effect for an individual component of the combination.

[9] = Table 5, fold dose reduction allowed in the Panaxytriol + Fludelone combination

CC(=O)O[C@H]1C(=O)[C@@]2(C)[C@H]([C@H](OC(=O)c3ccccc3)[C@]3(O)C[C@H](OC(=O)[C@H](O)[C@@H](NC(=O)c4ccccc4)c4ccccc4)C(C)=C1C3(C)C)[C@]1(OC(C)=O)CO[C@@H]1C[C@@H]2O [paclitaxel]
complete remission (CR) ([1]; FIG. 14, paclitaxel 25 mg/kg iv Q2D×8, with or without Compound K 30 mg/kg iv Q4D×14): 10/10 | BW loss ([1]; mouse, in vivo): approximately 25% | decrease in BW ([1]; mouse, in vivo): 13.2% | IC50 ([2]; Homo sapiens, CCRF-CEM, CCK-8, 72-hr exposure, read-out: CCRF-CEM/TAXOL (IC50 in μM)): 1.12 µM | Fold of resistance (IC50 ratio CCRF-CEM/TAXOL vs CCRF-CEM) [2]: 860 fold | Total score ([3]; per mouse): 8 (3×) and 2 (2×) and 0 and 5 and 3 and 10 and 7 | Total score ([3]; whole group of 10 mice): 53 | 1st & 2nd Cycle Total Score ([3]; per mouse, listed as Taxol): 33 (2×) and 4 (2×) and 15 and 35 and 18 and 34 and 27 and 31 | 2nd Cycle Total Score ([3]; per mouse, listed as Taxol): 25 (2×) and 2 (2×) and 15 (2×) and 30 and 24 and 20 and 23 | 1st & 2nd Cycle Total Score ([3]; whole group of 10 mice): 234 | 2nd Cycle Total Score ([3]; whole group of 10 mice): 181 | 1st Total score (group) ([3]; days 12-26, sum over 11 mice of the group, first round of paclitaxel): 13 | 1st Total score (per mouse) ([3]; days 12-26, sum per individual mouse, first round of paclitaxel): 3 and 2 (3×) and 4 | 2nd Total Score up to day 42 (group) ([3]; days 28-42, sum over 11 mice of the group, second round of paclitaxel): 79 | 2nd Total Score up to day 42 (per mouse) ([3]; days 28-42, sum per individual mouse, second round of paclitaxel): 8 and 6 (3×) and 9 (3×) and 7 and 5 and 4 and 10 | toxicity score (neurotoxicity) ([3]; 27 day): 2 | toxicity score (neurotoxicity) ([3]; 59 day): 6 | IC50 ([4]; read-out: CCRF-CEM (IC50 in μM), Table 3A-2, CCK-8, 72-hr exposure): 0.0013 µM | IC50 ([5]; Table 3A-2, CCK-8, 72-hr exposure, read-out: CCRF-CEM/VBL (IC50 in μM)): 2.26 µM | Fold of resistance (IC50 ratio CCRF-CEM/VBL vs CCRF-CEM) ([5]; Table 3A-2): 1741 fold

CC(C)=CCCC(C)(O)[C@H]1CC[C@]2(C)[C@@H]1[C@H](O)C[C@@H]1[C@@]3(C)CC[C@H](O)C(C)(C)[C@@H]3CC[C@]12C (stereo in doubt) [protopanaxadiol]
significant cytotoxicity observed above [6]: above 5 μg/well

C=CC(=O)C#CC#CC[C@@H](O)[C@H](O)CCCCCCC [Compound (B)]
IC50 ([7]; read-out: IC50 in μM CCRF-CEM, Table 10, Aug. 22, 2003 (Stored), same solution kept at −20° C. in DMSO): 4.78 µM | IC50 ([7]; read-out: IC50 in μM CCRF-CEM, Table 10, Jul. 25, 2003 (Fresh)): 0.72 ± 0.14 µM | IC50 ([7]; read-out: IC50 in μM CCRF-CEM/VBL, Table 10, Aug. 22, 2003 (Stored), same solution kept at −20° C. in DMSO): 5.29 µM | IC50 ([7]; read-out: IC50 in μM CCRF-CEM/VBL, Table 10, Jul. 25, 2003 (Fresh)): 0.95 µM | [3H]-AdR → RNA (% Activation ↑ or Inhibition ↓) (leukemic CCRF CEM cells; 15 μM, 15 min, ↑ (activation)): 30.7 ↑ % | [3H]-dThd → DNA (% Activation ↑ or Inhibition ↓) (leukemic CCRF CEM cells; 15 μM, 15 min, ↑ (activation)): 26.1 ↑ % | [3H]-AdR → RNA (% Activation ↑ or Inhibition ↓) (leukemic CCRF CEM cells; 100 μM, 60 min, ↓ (inhibition)): 82.0 ↓ % | [3H]-dThd → DNA (% Activation ↑ or Inhibition ↓) (leukemic CCRF CEM cells; 100 μM, 60 min, ↓ (inhibition)): 78.2 ↓ % | inhibition at 15 µM (leukemic CCRF CEM cells; Homo sapiens, CCRF-CEM, 15 μM, 15 min, ↓ (inhibition), read-out: [3H] Leu → Protein (% Activation ↑ or Inhibition ↓)): 62.8% | inhibition at 100 µM (leukemic CCRF CEM cells; Homo sapiens, CCRF-CEM, 100 μM, 60 min, ↓ (inhibition), read-out: [3H] Leu → Protein (% Activation ↑ or Inhibition ↓)): 78.2% | IC50 ([4]; read-out: IC50 CCRF-CEM, Table 3, XTT, 72-hour): 4.49 ± 0.41 µM | IC50 ([5]; read-out: IC50 CCRF ± CEM/VBL): 6.29 ± 1.41 µM | fold resistance in brackets (IC50 CCRF-CEM/VBL vs CCRF-CEM) ([5]; Table 3): 1.40 x

C/C(=C\c1csc(C)n1)[C@@H]1C/C=C(/C(F)(F)F)C/C=C/[C@H](C)[C@H](O)[C@@H](C)C(=O)C(C)(C)[C@@H](O)CC(=O)O1 [Fludelone]
IC50 ([8]; Table 5, Panaxytriol + Fludelone combination (1.199 + 0.0012), read-out: Dose-effect parameter Dm (IC50) of the component in the combination): 1.2 nM | IC50 ([8]; Table 5, each drug alone, read-out: Dose-effect parameter Dm (IC50)): 2.7 nM | Dose-Reduction Index (DRI) at IC50 [8, 9]: 2.27 | Dose-Reduction Index (DRI) at IC75 [8, 9]: 7.02 | Dose-Reduction Index (DRI) at IC90 [8, 9]: 21.69 | Dose-Reduction Index (DRI) at IC95 [8, 9]: 46.73 | dose-reduction index (DRI) ([8]; panaxytriol + Fludelone combination, MX-1 cells): 2.27-46.73
